Test results: the supplement of paper PMC8671470
Where a name gives a salt, the structure may show the parent alone.

What follows are compounds tested on HL-60 (assay: cell viability (% survival relative to DMSO control); higher = less cytotoxic). Conditions: drug1 concentration 10 nM; drug2 concentration 10 nM; 72 h.
Protocol: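 8x8 drug-combination matrices (0-5000 nM; rosiglitazone and lestaurtinib 0-1000 nM) were run in HL-60 cells for 72 h with a CellTiter-Glo read-out. Survival is normalised to DMSO and 10 µM bortezomib and clipped at 100%. Bliss synergy was analysed in SynergyFinder.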
`CN(CCOc1ccc(Cc2sc(O)nc2O)cc1)c1ccccn1` [Rosiglitazone] + c1cc(-c2cnn3cc(-c4ccc(OCCN5CCCCC5)cc4)cnc23)ccn1 [Dorsomorphin] was tested, and the cell viability was > 100%.

Same assay, conditions: drug1 concentration 10 nM; drug2 concentration 50 nM; 72 h
In the case of `O=C(O)CC[N+](=O)[O-]` [3-nitropropionic acid] + CCn1c(=Cc2cccc[n+]2CC)sc(=C2Sc3ccccc3N2C)c1=O [MKT 077], the cell viability is reported as 92.7%. `CCn1c(=Cc2cccc[n+]2CC)sc(=C2Sc3ccccc3N2C)c1=O` [MKT 077] + CN(C)CCNC(=O)c1cccn2c(=O)c3cc4ccccc4cc3nc12 [Bmh-21] was tested, and the cell viability was 89.5%. With `CN(CCOc1ccc(Cc2sc(O)nc2O)cc1)c1ccccn1` [Rosiglitazone] + CC(C)(Cc1ccccc1)NCC(O)c1ccc(O)c(NS(C)(=O)=O)c1 [Zinterol hydrochloride] the cell viability was 83.9%. With `CN(CCOc1ccc(Cc2sc(O)nc2O)cc1)c1ccccn1` [Rosiglitazone] + c1cc(-c2cnn3cc(-c4ccc(OCCN5CCCCC5)cc4)cnc23)ccn1 [Dorsomorphin] the cell viability was > 100%.

Same assay, conditions: drug1 concentration 10 nM; drug2 concentration 100 nM; 72 h
Compound `O=C(O)CC[N+](=O)[O-]` [3-nitropropionic acid] + CCn1c(=Cc2cccc[n+]2CC)sc(=C2Sc3ccccc3N2C)c1=O [MKT 077] has a cell viability of 83.3%. In the case of `CCn1c(=Cc2cccc[n+]2CC)sc(=C2Sc3ccccc3N2C)c1=O` [MKT 077] + CN(C)CCNC(=O)c1cccn2c(=O)c3cc4ccccc4cc3nc12 [Bmh-21], the cell viability is reported as > 100%. For `CN(CCOc1ccc(Cc2sc(O)nc2O)cc1)c1ccccn1` [Rosiglitazone] + CC(C)(Cc1ccccc1)NCC(O)c1ccc(O)c(NS(C)(=O)=O)c1 [Zinterol hydrochloride], the cell viability was 90.1%. `CN(CCOc1ccc(Cc2sc(O)nc2O)cc1)c1ccccn1` [Rosiglitazone] + c1cc(-c2cnn3cc(-c4ccc(OCCN5CCCCC5)cc4)cnc23)ccn1 [Dorsomorphin] was tested, and the cell viability was > 100%.

Same assay, conditions: drug1 concentration 10 nM; drug2 concentration 500 nM; 72 h
In the case of `O=C(O)CC[N+](=O)[O-]` [3-nitropropionic acid] + CCn1c(=Cc2cccc[n+]2CC)sc(=C2Sc3ccccc3N2C)c1=O [MKT 077], the cell viability is reported as 84.2%. `CCn1c(=Cc2cccc[n+]2CC)sc(=C2Sc3ccccc3N2C)c1=O` [MKT 077] + CN(C)CCNC(=O)c1cccn2c(=O)c3cc4ccccc4cc3nc12 [Bmh-21] was tested, and the cell viability was 61.1%. For `CN(CCOc1ccc(Cc2sc(O)nc2O)cc1)c1ccccn1` [Rosiglitazone] + CC(C)(Cc1ccccc1)NCC(O)c1ccc(O)c(NS(C)(=O)=O)c1 [Zinterol hydrochloride], the cell viability was > 100%. `CN(CCOc1ccc(Cc2sc(O)nc2O)cc1)c1ccccn1` [Rosiglitazone] + c1cc(-c2cnn3cc(-c4ccc(OCCN5CCCCC5)cc4)cnc23)ccn1 [Dorsomorphin] showed a cell viability of 84.6%.

Same assay, conditions: drug1 concentration 10 nM; drug2 concentration 1000 nM; 72 h
For `O=C(O)CC[N+](=O)[O-]` [3-nitropropionic acid] + CCn1c(=Cc2cccc[n+]2CC)sc(=C2Sc3ccccc3N2C)c1=O [MKT 077], the cell viability was > 100%. Work on `CCn1c(=Cc2cccc[n+]2CC)sc(=C2Sc3ccccc3N2C)c1=O` [MKT 077] + CN(C)CCNC(=O)c1cccn2c(=O)c3cc4ccccc4cc3nc12 [Bmh-21] yielded a cell viability of 58.3%. With `CN(CCOc1ccc(Cc2sc(O)nc2O)cc1)c1ccccn1` [Rosiglitazone] + CC(C)(Cc1ccccc1)NCC(O)c1ccc(O)c(NS(C)(=O)=O)c1 [Zinterol hydrochloride] the cell viability was > 100%. With `CN(CCOc1ccc(Cc2sc(O)nc2O)cc1)c1ccccn1` [Rosiglitazone] + c1cc(-c2cnn3cc(-c4ccc(OCCN5CCCCC5)cc4)cnc23)ccn1 [Dorsomorphin] the cell viability was 40.1%.

Same assay, conditions: drug1 concentration 10 nM; drug2 concentration 5000 nM; 72 h
`O=C(O)CC[N+](=O)[O-]` [3-nitropropionic acid] + CCn1c(=Cc2cccc[n+]2CC)sc(=C2Sc3ccccc3N2C)c1=O [MKT 077] showed a cell viability of 79.2%. Work on `CCn1c(=Cc2cccc[n+]2CC)sc(=C2Sc3ccccc3N2C)c1=O` [MKT 077] + CN(C)CCNC(=O)c1cccn2c(=O)c3cc4ccccc4cc3nc12 [Bmh-21] yielded a cell viability of 30.1%. With `CN(CCOc1ccc(Cc2sc(O)nc2O)cc1)c1ccccn1` [Rosiglitazone] + CC(C)(Cc1ccccc1)NCC(O)c1ccc(O)c(NS(C)(=O)=O)c1 [Zinterol hydrochloride] the cell viability was > 100%. Work on `CN(CCOc1ccc(Cc2sc(O)nc2O)cc1)c1ccccn1` [Rosiglitazone] + c1cc(-c2cnn3cc(-c4ccc(OCCN5CCCCC5)cc4)cnc23)ccn1 [Dorsomorphin] yielded a cell viability of 33.7%.

Same assay, conditions: drug1 concentration 50 nM; drug2 concentration 5 nM; 72 h
For `O=C(O)CC[N+](=O)[O-]` [3-nitropropionic acid] + CCn1c(=Cc2cccc[n+]2CC)sc(=C2Sc3ccccc3N2C)c1=O [MKT 077], the cell viability was 74.5%. For `CCn1c(=Cc2cccc[n+]2CC)sc(=C2Sc3ccccc3N2C)c1=O` [MKT 077] + CN(C)CCNC(=O)c1cccn2c(=O)c3cc4ccccc4cc3nc12 [Bmh-21], the cell viability was > 100%. `CN(CCOc1ccc(Cc2sc(O)nc2O)cc1)c1ccccn1` [Rosiglitazone] + CC(C)(Cc1ccccc1)NCC(O)c1ccc(O)c(NS(C)(=O)=O)c1 [Zinterol hydrochloride] was tested, and the cell viability was 97.5%. For `CN(CCOc1ccc(Cc2sc(O)nc2O)cc1)c1ccccn1` [Rosiglitazone] + c1cc(-c2cnn3cc(-c4ccc(OCCN5CCCCC5)cc4)cnc23)ccn1 [Dorsomorphin], the cell viability was > 100%.

Same assay, conditions: drug1 concentration 50 nM; drug2 concentration 10 nM; 72 h
`O=C(O)CC[N+](=O)[O-]` [3-nitropropionic acid] + CCn1c(=Cc2cccc[n+]2CC)sc(=C2Sc3ccccc3N2C)c1=O [MKT 077] was tested, and the cell viability was > 100%. In the case of `CCn1c(=Cc2cccc[n+]2CC)sc(=C2Sc3ccccc3N2C)c1=O` [MKT 077] + CN(C)CCNC(=O)c1cccn2c(=O)c3cc4ccccc4cc3nc12 [Bmh-21], the cell viability is reported as > 100%. With `CN(CCOc1ccc(Cc2sc(O)nc2O)cc1)c1ccccn1` [Rosiglitazone] + CC(C)(Cc1ccccc1)NCC(O)c1ccc(O)c(NS(C)(=O)=O)c1 [Zinterol hydrochloride] the cell viability was > 100%. `CN(CCOc1ccc(Cc2sc(O)nc2O)cc1)c1ccccn1` [Rosiglitazone] + c1cc(-c2cnn3cc(-c4ccc(OCCN5CCCCC5)cc4)cnc23)ccn1 [Dorsomorphin] was tested, and the cell viability was > 100%.

Same assay, conditions: drug1 concentration 50 nM; drug2 concentration 50 nM; 72 h
In the case of `O=C(O)CC[N+](=O)[O-]` [3-nitropropionic acid] + CCn1c(=Cc2cccc[n+]2CC)sc(=C2Sc3ccccc3N2C)c1=O [MKT 077], the cell viability is reported as > 100%. In the case of `CCn1c(=Cc2cccc[n+]2CC)sc(=C2Sc3ccccc3N2C)c1=O` [MKT 077] + CN(C)CCNC(=O)c1cccn2c(=O)c3cc4ccccc4cc3nc12 [Bmh-21], the cell viability is reported as > 100%. With `CN(CCOc1ccc(Cc2sc(O)nc2O)cc1)c1ccccn1` [Rosiglitazone] + CC(C)(Cc1ccccc1)NCC(O)c1ccc(O)c(NS(C)(=O)=O)c1 [Zinterol hydrochloride] the cell viability was > 100%. For `CN(CCOc1ccc(Cc2sc(O)nc2O)cc1)c1ccccn1` [Rosiglitazone] + c1cc(-c2cnn3cc(-c4ccc(OCCN5CCCCC5)cc4)cnc23)ccn1 [Dorsomorphin], the cell viability was > 100%.

Same assay, conditions: drug1 concentration 50 nM; drug2 concentration 100 nM; 72 h
Compound `O=C(O)CC[N+](=O)[O-]` [3-nitropropionic acid] + CCn1c(=Cc2cccc[n+]2CC)sc(=C2Sc3ccccc3N2C)c1=O [MKT 077] has a cell viability of 56.4%. `CCn1c(=Cc2cccc[n+]2CC)sc(=C2Sc3ccccc3N2C)c1=O` [MKT 077] + CN(C)CCNC(=O)c1cccn2c(=O)c3cc4ccccc4cc3nc12 [Bmh-21] was tested, and the cell viability was > 100%. With `CN(CCOc1ccc(Cc2sc(O)nc2O)cc1)c1ccccn1` [Rosiglitazone] + CC(C)(Cc1ccccc1)NCC(O)c1ccc(O)c(NS(C)(=O)=O)c1 [Zinterol hydrochloride] the cell viability was > 100%.
